Data: patent US9034886B2, “4-aminoquinazoline derivatives and uses thereof” (Shanghai Institute of Pharmaceutical Industry, priority 2011, dated 2015)

Experiments:
[1] = system: Hep3B2.1-7 human liver cancer cells; test: In vitro anti-proliferative effect, CCK-8 method, Hep3B; assay type: cell-based; conditions: Homo sapiens; for inhibition at 10 µM / inhibition at 100 µM: Hep3B cell strain, CCK-8 method; for inhibition at 10 µM: compound at 10 μM; for inhibition at 100 µM: compound at 100 μM
In short: (§1)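 Percent growth inhibition was read by CCK-8 assay after exposure to two concentrations, 100 μM and 10 μM.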

[2] = system: PANC-1 human pancreatic cancer cells; test: In vitro anti-proliferative effect, CCK-8 method, PANC-1; assay type: cell-based; conditions: Homo sapiens, PANC-1
In short: as §1

[3] = system: Colo320 human colorectal cancer cell lines; test: In vitro anti-proliferative effect, CCK-8 method, Colo320; assay type: cell-based; conditions: Homo sapiens, COLO 320; for inhibition at 10 µM / inhibition at 100 µM: Colo320 cell strain, CCK-8 method; for inhibition at 10 µM: compound at 10 μM; for inhibition at 100 µM: compound at 100 μM
In short: as §1

[4] = system: MDA-MB-435s human breast cancer cells; test: In vitro anti-proliferative effect, CCK-8 method, MDA-MB-435s; assay type: cell-based; conditions: Homo sapiens, MDA-MB-435S
In short: as §1

[5] = system: A549 human lung cancer cells; test: In vitro anti-proliferative effect, CCK-8 method, A549; assay type: cell-based; conditions: Homo sapiens, A549
In short: as §1

[6] = system: K562 human chronic myelogenous leukemia cells; test: In vitro anti-proliferative effect, CCK-8 method, K562; assay type: cell-based; conditions: Homo sapiens, K562
In short: (§2)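 Percent growth inhibition, measured with CCK-8, in Hut78 and K562 leukemia cells at two compound concentrations, 10 μM and 100 μM.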

[7] = system: PC-3 human prostate cancer; test: In vitro anti-proliferative effect, CCK-8 method, PC-3; assay type: cell-based; conditions: Homo sapiens; for inhibition at 10 µM / inhibition at 100 µM: PC-3 cell strain, CCK-8 method; for inhibition at 10 µM: compound at 10 μM; for inhibition at 100 µM: compound at 100 μM
In short: as §1

[8] = molecular target: HDAC1 (Homo sapiens (Human), UniProt Q13547); test: In vitro inhibition of subtype HDAC1 (HDAC1 Inhibitor Drug Screening Kit, Biovision); assay type: biochemical; conditions: for inhibition at 1 µM / inhibition at 10 µM: read-out: % Inhibition towards HDAC1; for inhibitory activity against HDAC1 compared with MS-275: both concentrations 10 μM and 1 μM
Sequence of HDAC1 (Q13547 whole entry): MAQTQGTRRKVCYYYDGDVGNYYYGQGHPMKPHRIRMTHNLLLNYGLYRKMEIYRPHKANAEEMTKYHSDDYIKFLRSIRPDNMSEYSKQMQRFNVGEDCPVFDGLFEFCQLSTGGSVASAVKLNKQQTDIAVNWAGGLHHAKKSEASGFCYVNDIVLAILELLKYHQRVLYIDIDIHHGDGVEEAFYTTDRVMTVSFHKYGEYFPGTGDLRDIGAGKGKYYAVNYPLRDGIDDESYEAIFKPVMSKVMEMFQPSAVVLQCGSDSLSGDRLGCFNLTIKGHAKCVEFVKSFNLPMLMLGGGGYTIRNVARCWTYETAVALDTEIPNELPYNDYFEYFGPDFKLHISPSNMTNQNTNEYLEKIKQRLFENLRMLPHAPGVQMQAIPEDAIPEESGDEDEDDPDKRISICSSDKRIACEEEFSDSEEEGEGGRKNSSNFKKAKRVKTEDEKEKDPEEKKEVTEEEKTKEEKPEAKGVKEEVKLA
Description: The in vitro inhibitory activities of the compounds towards the subtype HDAC1 were tested according to the instructions in the HDAC1 Inhibitor Drug Screening Kit (Biovision).
(1) The compounds to be tested were each individually prepared as 10 μM and 1 μM solutions and their inhibitory activities at these concentrations were tested.
Each dilution sample was placed in two wells and the enzyme inhibition IC50 of the compound was tested.

[9] = system: Hut78 T lymphocytic leukemia cells; test: In vitro anti-proliferative effect, CCK-8 method, Hut78; assay type: cell-based; conditions: Homo sapiens, HuT78; for inhibition at 10 µM / inhibition at 100 µM: read-out: Hut-78 (inhibition %)
In short: as §2

[10] = Maximum tolerance dose through intragastrical administration; assay type: in vivo; conditions: mice, administrated intragastrically
Description: Forty ICR mice, half female and half male, weighing […] were divided into four groups, 10 mice in each group. After the mice were fasted for 6 h, the compound to be tested was administrated intragastrically to each group at a volume of 0.3 ml/10 g by using a sterile plastic syringe. General physical signs and the deaths of the animals were record at 1, 2 and 4 h after the administration. The animals were then observed continuously for 14 days and their weights, physical signs and deaths were observed and recorded every day. Dead animals were dissected to see if there was any visible pathological change in the animal's viscera and pathological examination was performed on suspicious tissues and organs. A part of the experimental results is as follows.

[11] = system: Jurkat E6-1 human T-cell lymphoma; test: In vitro anti-proliferative effect, CCK-8 method, Jurkat E6-1; assay type: cell-based; conditions: Homo sapiens, Jurkat E6.1
In short: as §1

[12] = system: HDACs; test: In vitro inhibition of HDACs (HDAC Inhibitor Drug Screening Kit, Biovision K340-100); assay type: biochemical; conditions: for inhibitory activity on HDACs compared with MS-275: concentrations of 2 mM, 200 μM, and 40 μM
Description: The in vitro inhibitory activities of the compounds towards HDACs were tested according to the instructions in the HDAC Inhibitor Drug Screening Kit (Biovision/Catalog #K340-100).
(1) The compounds to be tested were each individually prepared as 2 mM, 200 μM and 40 μM solutions and their inhibitory activities at these concentrations were tested.

SMILES	inhibition at 10 µM [1]	inhibition at 100 µM [1]	inhibition at 10 µM [2]	inhibition at 100 µM [2]	inhibition at 10 µM [3]	inhibition at 100 µM [3]	inhibition at 10 µM [4]	inhibition at 100 µM [4]	inhibition at 10 µM [5]	inhibition at 100 µM [5]	inhibition at 10 µM [6]	inhibition at 100 µM [6]	inhibition at 10 µM [7]	inhibition at 100 µM [7]	inhibition at 1 µM [8]	inhibition at 10 µM [8]	inhibition at 10 µM [9]	inhibition at 100 µM [9]	maximum tolerance dose [10]	inhibition at 10 µM [11]	further results
Nc1ccccc1NC(=O)c1ccc(Nc2ncnc3ccc([N+](=O)[O-])cc23)cc1 [Compound V-11, N-(2-aminophenyl)-4-(6-nitroquinazoline-4-amino)benzamide]	22.3%	43%	24%	21.1%	2.6%	4.1%	30.6%	42.4%	15.3%	12.9%	20.4%	32.3%	21.9%	18.8%	26.2%	33.4%	28.5%	84.6%	over 2000 mg/kg	18.6%	inhibition at 100 µM [11]: 26.3%; IC50 [12]: 3.11 µM; inhibitory activity according to in vitro IC50 value against HDACs compared with MS-275 [12]: better inhibitory activities than MS-275; Inhibition percentage (%) towards HDACs ([12]; 40 μM): 4.1%; Inhibition percentage (%) towards HDACs ([12]; 200 μM): 11.1%; Inhibition percentage (%) towards HDACs ([12]; 2 mM): 49.0%
Nc1ccccc1NC(=O)c1ccc(Nc2ncnc3cc(F)ccc23)cc1 [Compound V-13, N-(2-aminophenyl)-4-(7-fluoroquinazoline-4-amino)benzamide]	21.5%	69.8%	26%	36.8%	0.9%	34.3%	27.5%	89.1%	18.3%	57.1%	25%	65.1%	-1.9%	48.5%	53.1%	83%	19.8%	54%	over 5000 mg/kg	19.1%	inhibitory activity against HDAC1 compared with MS-275 [8]: superior to that of MS-275; inhibition at 100 µM [11]: 77.8%; IC50 [12]: 1.14 µM; Inhibition percentage (%) towards HDACs ([12]; 40 μM): 1.0%; Inhibition percentage (%) towards HDACs ([12]; 200 μM): 20.1%; Inhibition percentage (%) towards HDACs ([12]; 2 mM): 50.0%
Nc1ccc(F)cc1NC(=O)c1ccc(Nc2ncnc3c(F)cccc23)cc1 [Compound V-14, N-(2-amino-5-fluorophenyl)-4-(8-fluoroquinazoline-4-amino)benzamide]	7.2%	79.3%	-2.8%	15.7%	-14.3%	82.7%	19.5%	63.9%	-17.6%	72.2%	34%	88.7%	22.9%	84.4%	1.48%	28.9%	22%	91.1%	over 2000 mg/kg	23.8%	IC50 ([1]; Hep3B): 16 µM; IC50 [3]: 27 µM; IC50 [5]: 5.09 µM; IC50 [6]: 2.81 µM; IC50 [7]: 3.57 µM; IC50 [9]: 0.0558 µM; IC50 [11]: 1.39 µM; inhibition at 100 µM [11]: 96.5%; IC50 [12]: 3.77 µM; inhibitory activity according to in vitro IC50 value against HDACs compared with MS-275 [12]: better inhibitory activities than MS-275; Inhibition percentage (%) towards HDACs ([12]; 40 μM): 46.8%; Inhibition percentage (%) towards HDACs ([12]; 200 μM): 67.1%; Inhibition percentage (%) towards HDACs ([12]; 2 mM): 94.8%; inhibitory activity on HDACs compared with MS-275 [12]: significantly stronger inhibitory activities than MS-275
COc1cc2ncnc(Nc3ccc(C(=O)Nc4ccccc4N)cc3)c2cc1OCCCN1CCOCC1 [Compound V-17, N-(2-aminophenyl)-4-[7-methoxy-6-(3-morpholinylpropoxy)quinazoline-4-amino]benzamide]	18.4%	45.7%	12%	25.1%	4.9%	28.9%	32.5%	73.3%	29.8%	67.9%	33.6%	72.4%	41.8%	67.1%	53.9%	76.2%	73.4%	93.5%	over 5000 mg/kg	20.3%	IC50 [8]: 0.735 µM; inhibitory activity against HDAC1 compared with MS-275 [8]: superior to that of MS-275; inhibition at 100 µM [11]: 80.2%; IC50 [12]: 1.72 µM; inhibitory activity according to in vitro IC50 value against HDACs compared with MS-275 [12]: better inhibitory activities than MS-275; Inhibition percentage (%) towards HDACs ([12]; 40 μM): 39.7%; Inhibition percentage (%) towards HDACs ([12]; 200 μM): 60.7%; Inhibition percentage (%) towards HDACs ([12]; 2 mM): 86.7%; inhibitory activity on HDACs compared with MS-275 [12]: significantly stronger inhibitory activities than MS-275
COc1cc2ncnc(Nc3ccc(C(=O)Nc4cc(F)ccc4N)cc3)c2cc1OCCCN1CCOCC1 [Compound V-18, N-(2-amino-5-fluorophenyl)-4-[7-methoxy-6-(3-morpholinylpropoxy)quinazoline-4-amino]benzamide]	13.8%	75.1%	0.9%	23.9%	7.7%	56.3%	22.7%	81.4%	9.5%	79.1%	58.5%	87.5%	45.2%	72.2%	59.8%	80.8%	39.9%	82.3%	over 2000 mg/kg	76.6%	IC50 [8]: 0.33 µM; inhibitory activity against HDAC1 compared with MS-275 [8]: superior to that of MS-275; inhibition at 100 µM [11]: 95.7%; IC50 [12]: 1.02 µM; Inhibition percentage (%) towards HDACs ([12]; 40 μM): 30.4%; Inhibition percentage (%) towards HDACs ([12]; 200 μM): 56.8%; Inhibition percentage (%) towards HDACs ([12]; 2 mM): 66.0%
CS(=O)(=O)CCNCc1ccc(-c2ccc3ncnc(Nc4ccc(C(=O)Nc5cc(F)ccc5N)cc4)c3c2)o1 [Compound V-20, N-(2-amino-5-fluorophenyl)-4-[6-(5-((2-(methylsulfonyl)ethylamino)methyl)furyl)quinazoline-4-amino]benzamide]	23.5%	60%	-1.7%	52%	6.5%	58.8%	17%	57.8%	0%	41.3%	64.3%	92.9%	48.1%	75.5%	53.5%	77.4%	44.4%	85.7%	over 5000 mg/kg	84.8%	inhibitory activity against HDAC1 compared with MS-275 [8]: superior to that of MS-275; inhibition at 100 µM [11]: 89.4%; IC50 [12]: 1.22 µM; Inhibition percentage (%) towards HDACs ([12]; 40 μM): 28.2%; Inhibition percentage (%) towards HDACs ([12]; 200 μM): 56.9%; Inhibition percentage (%) towards HDACs ([12]; 2 mM): 67.5%
